How the values were obtained:
[1] = tested on: multidrug-resistant Namalwa cell line (MDR+ve); experiment: MTT cytotoxicity assay in multidrug-resistant Namalwa cells; type: cell-based; conditions: 72 h
Protocol: (§1) Namalwa 21 nM VCR (multidrug-resistant cells by exposure to vincristine (21 nM), and Namalwa wild type (ATCC CRL-1432) cells were cultured in ATCC-formulated RPMI-1640 medium with L-glutamine (2 mM), sodium bicarbonate (1.5 g L-1), glucose (4.5 g L^−1), HEPES (10 mM) and sodium pyruvate (1.0 mM). The media was supplemented with penicillin (100 U mL^−1) and streptomycin (100 μg mL^−1, Mediatech) and fetal bovine serum (FBS, 10%, BenchMark). Cells were maintained in a humid 5% CO2 atmosphere at 37° C. and subcultured every 2-3 days.
(§2) Cytotoxicity of PCTX and compounds 2, 2& 10, 15 and 17 was determined using the MTT assay. On the day of exposure, exponentially growing cells were plated at 25,000 cells/well in 160 μL in 96-well tissue culture plates (Nunc). Cells were then incubated with medium (control) or compounds (20 μL, 10× in cell culture medium) at the indicated final concentrations (0.1-1000 nM). At 68 h, MTT reagent (5 mg mL^−1 in PBS, 20 μL/well) was added to each well. The plate was further incubated at 37° C. At 72 h the plate was centrifuged at 1400 rpm for 10 min at 4° C. and supernatants were carefully removed. DMSO (100 μL/well) was added to dissolve the water-insoluble formazan salt. The absorbance was measured at 545 nm using a microplate reader (BMG Labtech). Data points were collected in triplicate and expressed as normalized values for untreated control cells (100%). […]

Namalwa wild type cells = experiment: MTT cytotoxicity assay in Namalwa wild type cells; type: cell-based; conditions: 72 h incubation, read-out: IC50 (cytotoxicity, cell viability by MTT)
Protocol: as §1, §2

| Structure (SMILES) | activity (cytotoxicity) in MDR+ve cell line [1] | IC50 (Namalwa wild type cells) [nM] |
| --- | --- | --- |
| CC(=O)O[C@H]1C(=O)[C@]2(C)[C@@H](O)CC3OC[C@@]3(OC(C)=O)[C@H]2[C@H](OC(=O)c2ccccc2)[C@]2(O)C[C@H](OC(=O)[C@H](OC(=O)CCC(=O)NCCOCCOCCNC(=O)OCC3C4CCC#CCCC43)[C@@H](NC(=O)c3ccccc3)c3ccccc3)C(C)=C1C2(C)C (stereo partly drawn) [Compound 2, (4S,4aS,6R,9S,11S,12S,12aR,12bS)-9-(((19R)-19-((S)-benzamido(phenyl)methyl)-1-(bicyclo[6.1.0]non-4-yn-9-yl)-3,14,17-trioxo-2,7,10,18-tetraoxa-4,13-diazaicosan-20-oyl)oxy)-12-(benzoyloxy)-4,11-dihydroxy-4a,8,13,13-tetramethyl-5-oxo-3,4,4a,5,6,9,10,11,12,12a-decahydro-1H-7,11-methanocyclodeca[3,4]benzo[1,2-b]oxete-6,12b(2aH)-diyl diacetate] | no appreciable activity | 26 |
| CC(=O)O[C@H]1C(=O)[C@@]2(C)[C@H]([C@H](OC(=O)c3ccccc3)[C@]3(O)C[C@H](OC(=O)[C@H](O)[C@@H](NC(=O)c4ccccc4)c4ccccc4)C(C)=C1C3(C)C)[C@]1(OC(C)=O)CO[C@@H]1C[C@@H]2O [PCTX, Paclitaxel, reference compound] | – | 2 |
